According to ChEMBL document CHEMBL1201862, “PubChem BioAssay data set” (2004):
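Interpolation was linear, between the two tested concentrations surrounding the appropriate level; five concentrations were tested over 48 hours in 96-well plates. GI50: concentration for 50% inhibition of growth.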 Activity calls are given as the source filed them. No stated cut-off is given here; in the data, active = GI50 up to about 1.1 µM and inactive = higher.

Tests used:
Assay in all cases: inhibition of tumour cell growth, NCI panel, 48 h
[1] = tested on: 786-0
[2] = tested on: A549
[3] = tested on: CAKI-1
[4] = tested on: CCRF-CEM
[5] = tested on: COLO 205
[6] = tested on: KM12
[7] = tested on: LOX IMVI
[8] = tested on: M14
[9] = tested on: NCI-H226
[10] = tested on: NCI-H522
[11] = tested on: OVCAR-3
[12] = tested on: OVCAR-8
[13] = tested on: SK-MEL-28
[14] = tested on: SNB-19
[15] = tested on: SNB-75
[16] = tested on: U-251
[17] = tested on: HOP-92

Measured: GI50

CCCCNC1=C(C(=O)OCC)/C(=N/NC(=O)c2ccccc2O)CO1
inactive: [1] 32.1 µM | [2] 47.8 µM | [3] 8.53 µM | [4] 23.7 µM | [5] > 100 µM | [6] 79.3 µM | [7] 25.5 µM | [8] 37.2 µM | [9] 18.5 µM | [10] 13.4 µM | [11] 27.1 µM | [12] 95.1 µM | [13] 18.5 µM | [14] > 100 µM | [15] 1.73 µM | [16] 20.1 µM

O=C(c1cc2ccccc2o1)N(Cc1ccccc1)c1ccccc1
inactive: [1] 20.2 µM | [2] 32.6 µM | [3] 19.5 µM | [4] 13.6 µM | [5] 20.4 µM | [17] 20.7 µM | [6] 20.6 µM | [7] 21 µM | [8] 18.6 µM | [9] 15.6 µM | [10] 16.4 µM | [11] 20.3 µM | [12] 22.9 µM | [13] 36.9 µM | [14] 35.9 µM | [15] 28.3 µM

CCOP(=O)(C/C(O)=C1\C(=O)C(CCCCNC(=O)OC(C)(C)C)N(Cc2ccccc2)C1=O)OCC (centres undefined)
inactive: [1] > 100 µM | [2] > 100 µM | [3] > 100 µM | [4] > 100 µM | [5] > 100 µM | [6] > 100 µM | [7] > 100 µM | [8] > 100 µM | [9] > 100 µM | [10] 1.12 µM | [11] > 100 µM | [12] > 100 µM | [13] > 100 µM | [15] > 100 µM | [16] > 100 µM

CN1CCc2c1nc(-c1ccc([N+](=O)[O-])cc1)c1c2N(C)CC1
inactive: [1] > 100 µM | [2] > 100 µM | [3] 26.4 µM | [4] > 100 µM | [5] 54.6 µM | [17] 9.4 µM | [6] 30.9 µM | [7] 44.2 µM | [8] 77.6 µM | [11] 8.15 µM | [12] > 100 µM | [14] > 100 µM | [15] > 100 µM | [16] > 100 µM

NNC(=O)C(=O)N/N=C(\CCCC(=O)Nc1ccc(Cl)cc1)CC(=O)c1ccc(F)cc1
inactive: [1] > 100 µM | [2] > 100 µM | [4] > 100 µM | [5] > 100 µM | [17] > 100 µM | [6] > 100 µM | [7] 13.9 µM | [8] 51.3 µM | [9] > 100 µM | [11] > 100 µM | [12] > 100 µM | [13] > 100 µM | [14] > 100 µM | [15] > 100 µM | [16] > 100 µM

CCc1cccc(C)c1NC(=O)CCc1nnc(S)[nH]1
inactive: [1] > 100 µM | [2] > 100 µM | [3] > 100 µM | [4] > 100 µM | [17] > 100 µM | [6] > 100 µM | [7] > 100 µM | [8] > 100 µM | [9] > 100 µM | [10] > 100 µM | [11] > 100 µM | [12] > 100 µM | [13] > 100 µM | [14] > 100 µM | [16] > 100 µM

C/C=C1\C=C(OC)CN(CCc2c[nH]c3ccccc23)C1
inactive: [1] 59 µM | [2] 80.7 µM | [4] > 100 µM | [5] 34.3 µM | [6] 52.2 µM | [7] 23.2 µM | [8] 27.7 µM | [9] 27.2 µM | [10] 46 µM | [11] 53.5 µM | [12] > 100 µM | [14] > 100 µM | [15] 38.9 µM

COc1cccc(NC(=S)Nn2c(C)nc3ccccc3c2=O)c1
inactive: [1] > 100 µM | [2] > 100 µM | [3] > 100 µM | [4] > 100 µM | [5] > 100 µM | [17] > 100 µM | [6] > 100 µM | [7] > 100 µM | [8] > 100 µM | [9] 80.2 µM | [10] > 100 µM | [12] > 100 µM | [13] > 100 µM | [15] > 100 µM | [16] > 100 µM

CCN(CC)CCNC(=O)c1cccc2cc3ccccc3nc12
inactive: [1] 6.15 µM | [2] 3.56 µM | [3] 4.48 µM | [4] 5.69 µM | [5] 4.44 µM | [17] 4.78 µM | [6] 8 µM | [7] 5.57 µM | [8] 5.9 µM | [9] 4.18 µM | [11] 11.6 µM | [12] 6 µM | [13] 9.71 µM | [14] 7.45 µM | [15] 7.71 µM | [16] 5.01 µM

Cc1ccc(C(=O)N2CCCCC2)cc1/N=N/N(C)C
inactive: [1] > 100 µM | [2] > 100 µM | [3] > 100 µM | [4] > 100 µM | [5] > 100 µM | [6] > 100 µM | [7] > 100 µM | [8] > 100 µM | [9] > 100 µM | [10] > 100 µM | [11] > 100 µM | [12] > 100 µM | [13] > 100 µM | [14] > 100 µM | [15] > 100 µM

O=C(O)c1c[nH]cc1C(=O)O
inactive: [1] > 100 µM | [2] > 100 µM | [3] > 100 µM | [4] > 100 µM | [5] > 100 µM | [17] > 100 µM | [6] > 100 µM | [7] > 100 µM | [8] > 100 µM | [9] > 100 µM | [10] > 100 µM | [11] > 100 µM | [12] > 100 µM | [14] > 100 µM | [15] 96.4 µM | [16] > 100 µM

Cc1nc(-n2nc(-c3ccccc3)cc2-c2ccccc2)sc1C(=O)/C=C/c1ccccc1
inactive: [1] > 100 µM | [2] 75.3 µM | [3] 9.79 µM | [4] 72.9 µM | [5] > 100 µM | [17] 70.1 µM | [6] 84.3 µM | [7] > 100 µM | [10] 33.1 µM | [11] 81.1 µM | [12] > 100 µM | [13] > 100 µM | [14] > 100 µM | [15] 6.58 µM | [16] > 100 µM

CC(C)c1cccc(C(C)C)c1NC(=O)C(=O)C(C(=O)c1ccccc1-c1ccccc1)C1OC(=O)c2ccccc21 (centres undefined)
inactive: [1] 17.8 µM | [2] 28 µM | [3] 30.1 µM | [4] 13.8 µM | [5] 30.9 µM | [6] 16.7 µM | [7] 14.2 µM | [9] > 10 µM | [10] 15.5 µM | [12] 13.7 µM | [13] 20.1 µM | [14] 16.8 µM | [16] 12.8 µM
